From patent US4861878A, “1H-pyrido-(2,3-b) (1,4)-thiazines” (Bayer Aktiengesellschaft, priority 1985, dated 1989) come the findings set out here.

The target of assay [1] is T1, lipoxygenase (Rattus norvegicus, UniProt P12527).
T1 construct: Polymorphonuclear leucocytes from rats (PMNL) were obtained from the peritoneal space in Wistar rats; endogenous in cells; host or cells: peritoneal polymorphonuclear leucocytes of Wistar rats (elicited with sodium caseinate)
T1 sequence (P12527 1-673): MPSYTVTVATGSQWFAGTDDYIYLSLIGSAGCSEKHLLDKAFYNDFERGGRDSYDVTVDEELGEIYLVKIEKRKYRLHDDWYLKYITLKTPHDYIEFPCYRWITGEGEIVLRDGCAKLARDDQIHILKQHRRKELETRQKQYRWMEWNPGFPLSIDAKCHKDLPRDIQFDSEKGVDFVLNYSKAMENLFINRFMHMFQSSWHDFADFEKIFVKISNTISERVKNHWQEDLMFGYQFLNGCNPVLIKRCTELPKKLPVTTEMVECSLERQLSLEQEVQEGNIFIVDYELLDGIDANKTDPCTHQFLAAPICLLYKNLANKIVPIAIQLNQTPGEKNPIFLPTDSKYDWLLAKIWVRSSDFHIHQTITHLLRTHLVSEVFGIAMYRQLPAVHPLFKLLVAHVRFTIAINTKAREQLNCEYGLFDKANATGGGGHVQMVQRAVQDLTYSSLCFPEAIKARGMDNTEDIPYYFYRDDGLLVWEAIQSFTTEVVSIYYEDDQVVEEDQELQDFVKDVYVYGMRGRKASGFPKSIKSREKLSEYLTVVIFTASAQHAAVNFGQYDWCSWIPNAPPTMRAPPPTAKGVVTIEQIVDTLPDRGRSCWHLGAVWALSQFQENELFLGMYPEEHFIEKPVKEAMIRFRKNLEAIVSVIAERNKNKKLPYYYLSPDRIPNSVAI
Description: LTB4 release from rat polymorphonuclear leucocytes (PMNL) after calcium ionophore A 23187, by HPLC (lipoxygenase inhibition). Format: cell-based, rat (Wistar). The procedure: The release of LTB4 on polymorphonuclear granulocytes after addition of substances and calcium ionophor was determined by means of HPLC as a measure of the lipoxygenase inhibition.
The combined ether phases were washed with 4 ml of water (double distilled), dried while gassing with nitrogen and taken up in 80 μl of methanol.
20 μl of each of the samples thus prepared were applied to a pre-packed column (Nucleosil, type 7.5 C 18M 4×25 mm) and chromatographed at a flow rate of 1 ml/min (Kontron pump system 600), methanol, H2 O and acetic acid (75:25:0.01) being used as the mobile phase. Detection was at 280 nm (Uvicon 720 LC). The formation of the metabolite was quantified with the aid of the internal standard PG B2 as a quotient of the area integrals (Shimadzu C-R1B) of LTB4 to PGB2 and an inhibition was determined as a percentage of the controls.

The test system of assay [2] is leucocyte migration. Description: Inhibition of leucocyte migration, small sponge impregnated with active compound under the skin on the backs of rats. The settings on record: rat, local, 10 mg/rat, impregnated sponge under skin of back. Format: in vivo. The source says:
The 1H-pyrido-[2,3-b][1,4]-thiazines according to the invention also have an in vivo action.
The action of a 1H-pyrido-[2,3-b][1,4]-thiazine after local administration by insertion of a small sponge impregnated with active compound under the skin on the backs of rats may be mentioned as examples.

By IC50 is commonly meant the concentration that inhibits the measured activity by half. Turning to `COC(=O)C1=CNc2cccnc2S1` [Example 2], the IC50 in assay [1] came out at 5000 nM.
Turning to `CCOC(=O)C1=CNc2cccnc2S1` [Example 1, 3-Ethoxycarbonyl-1H-pyrido[2,3-b][1,4]-thiazine], the “Inhibition of Leucocyte migration (control = 0%)” value in assay [2] worked out at 50%. Moreover, the IC50 in assay [1] was 460 nM.
In the case of `CCOC(=O)C1=CN(CC#N)c2cccnc2S1` [Example 19], the concentration for half-maximal inhibition (IC50) in assay [1] is 2600 nM.
The same measure, in the same setting: in the case of `CCCCOC(=O)C1=CNc2cccnc2S1` [Example 4] it was 55 nM.
With `O=C1CCCC2=C1Sc1ncccc1N2`, the “Inhibition of leukotriene B4 biosynthesis, % inhibition” value in assay [1] (at 1·10^-5 (M/1), rat PMNL) is 42%.
